These results are taken from US8461150B2, “Chalcone linked pyrrolo[2,1-c][1, 4]benzodiazepine hybrids as potential anticancer agents and process for the preparation thereof” (Council of Scientific & Industrial Research, priority 2008, dated 2013).

Usually GI50 stands for the concentration at which growth is held to half of that of the control.

SMILES strings stand for the structures.

In experiment [1] the test system is Prostate cancer cell lines. As to the kind of experiment: NCI in vitro anticancer screen, SRB assay, 48 h, panel average. The settings on record: average of six to eight cell lines, 48 h exposure. Type of experiment: cell-based, human. On the procedure: (§1) Biological Activity: The in vitro cell line studies were carried out at the National Cancer Institute, Maryland, USA.
(§2) Cytotoxicity: • The compounds 6b) 7-Methoxy-8-{4-[1-(4-fluorophenyl)-3-(4-hydroxy-3-methoxyphenyl)-2-propen-1-one]butyl}-oxy-(11aS)-1,2,3,11a-5H-pyrrolo[2,1-c][1,4]benzodiazepin-5-one; • (6c) 7-Methoxy-8-{5-[1-(4-fluorophenyl)-3-(4-hydroxy-3-methoxyphenyl)-2-propen-1-one]pentyl}-oxy-(11aS)-1,2,3,11a-5H-pyrrolo[2,1-c][1,4]benzodiazepin-5-one; • (6g) 7-Methoxy-8-{3-[1-(2-hydroxyphenyl)-3-(4-hydroxy-3-methoxyphenyl)-2-propen-1-one]propyl}-oxy-(11aS)-1,2,3,11a-5H-pyrrolo[2,1-c][1,4]benzodiazepin-5-one; • (10a) 7-Methoxy-8-{3-[3-(4-hydroxy-3-methoxyphenyl)-1-(2,4-dimethyl-3-quinolyl)-2-propen-1-one]propyl}-oxy-(11aS)-1,2,3,11a-5H-pyrrolo[2,1-c][1,4]benzodiazepin-5-one • (10b) 7-Methoxy-8-{4-[3-(4-hydroxy-3-methoxyphenyl)-1-(2,4-dimethyl-3-quinolyl)-2-propen-1-one]butyl}-oxy-(11aS)-1,2,3,11a-5H-pyrrolo[2,1-c][1,4]benzodiazepin-5-one; were evaluated for in vitro anticancer activity against […] derived from […] (leukemia, ovarian, renal, melanoma, CNS, colon, prostate, lung, cervix and breast cancer) as shown in (Table 1, 2 and 3)
(§3) 6b, 6c, 6g, 10a and 10b were evaluated for in vitro anticancer activity against sixty human tumour cells derived from nine cancer types (leukemia, non-small-cell lung, colon, CNS, melanoma, ovarian, prostate, renal and breast cancer) as shown in (Table 1 and 2). For the compound, dose response curves for each cell line were measured at a minimum of five concentrations at 10 fold dilutions. A protocol of 48 h continuous drug exposure was used and a sulforhodamine B (SRB) protein assay was used to estimate cell viability or growth. The concentration causing 50% cell growth inhibition (GI50), total cell growth inhibition (TGI 0% growth) and 50% cell death (LC50, −50% growth) compared with the control was calculated.
(§4) Each cancer type represents the average of six to eight different cancer cell lines.

Experiment [2] relates to Leukemia cancer cell lines. The experiment is described as above. The conditions noted are these: average of six to eight cell lines, 48 h exposure. The experiment is classed as cell-based, human. The procedure: as §1, §2, §3, §4
For experiment [3], the system named is Non-small cell lung cancer cell lines. Described as above. The conditions noted are these: average of six to eight cell lines, 48 h exposure. Type of experiment: cell-based, human. On the procedure:
as §1, §2, §3, §4

Experiment [4] concerns CNS cancer cell lines. The description is as above. Type of experiment: cell-based, human. The settings on record: average of six to eight cell lines, 48 h exposure. On the procedure: as §1, §2, §3, §4
For experiment [5], the system named is Colon cancer cell lines. Described as above. The conditions noted are these: average of six to eight cell lines, 48 h exposure. Type of experiment: cell-based, human. On the procedure:
as §1, §2, §3, §4

Experiment [6] concerns Breast cancer cell lines. The description is as above. Type of experiment: cell-based, human. The settings on record: average of six to eight cell lines, 48 h exposure. The procedure:
as §1, §2, §3, §4

Experiment [7] deals with Ovarian cancer cell lines. Described as above. The settings on record: average of six to eight cell lines, 48 h exposure. The experiment is classed as cell-based, human. On the procedure: as §1, §2, §3, §4
For experiment [8], the system named is Renal cancer cell lines. Described as above. The experiment is classed as cell-based, human. The conditions noted are these: average of six to eight cell lines, 48 h exposure. On the procedure:
as §1, §2, §3, §4

For experiment [9], the system named is Melanoma cancer cell lines. The description is as above. Type of experiment: cell-based, human. The conditions noted are these: average of six to eight cell lines, 48 h exposure. On the procedure:
as §1, §2, §3, §4

The subject of experiment [10] is duplex-form calf thymus DNA (CT-DNA). The experiment is described as follows: Thermal denaturation studies with calf thymus DNA. Type of experiment: binding. The conditions noted are these: [PBD]:[DNA] molar ratio 1:5, CT-DNA 100 μM, ligand 20 μM, pH 7.00. On the procedure:
These compounds have also been subjected to thermal denaturation studies with duplex-form calf thymus DNA (CT-DNA) using an modification of a reported procedure. Working solutions in aqueous buffer (10 mM NaH2PO4/Na2HPO4, 1 mM Na2EDTA, pH 7.00+0.01) containing CT-DNA (100 μm in phosphate) and the PBD (20 μm) have been prepared by addition of concentrated PBD solutions in DMSO to obtain a fixed [PBD]/[DNA] molar ratio of 1:5. The DNA-PBD solutions have been incubated at 37° C. for 0 and 18 h prior to analysis. Samples have been monitored at 260 nm using a Beckman DU-800 spectrophotometer fitted with high performance temperature controller, and heated at 1° C. min^−1 in the 40-110° C. range. DNA helix→coil transition temperatures (Tm) have been obtained from the maxima in the d(A260)/d T derivative plots. Drug-induced alterations in DNA melting behavior are given by: ΔTm=Tm(DNA+PBD)−Tm(DNA alone), where the Tm value for the PBD-free CT-DNA is 68.5±0.01.

Experiment [11] has as its system NCI-H226 (Non-small cell lung). The experiment is described as follows: Cytotoxicity in selected cancer cell lines (SRB, 48 h). Type of experiment: cell-based, human. The procedure: as §1, §3
(§5) Each cancer type represents the average of six to nine different cancer cell lines. In vitro evaluation of cytotoxic activity. The compound 6b, 6c, 6g 10a and 10b were evaluated for in vitro anticancer activity against nine human tumour cells derived from six cancer types (leukemia, colon, prostate, melanoma, ovarian, lung, cervix and breast cancer) as shown in Table 3. […] Compounds 6b, 6c, 6g, 10a and 10b have been evaluated for their in vitro cytotoxicity in selected human cancer cell lines of colon (Colo205), lung (NCI-H522, NCI-H226), colon (colo-205), prostate (DU145, PC3), ovarian (IGROV1, HT1080), and breast (MDA-MB-435, Zr-75-1), melanoma (LOXMIVI, VACC-62, SK-MEL-5) origin. A protocol of 48 h continuous drug exposure has been used and an […] has been used to estimate cell viability or growth. The results are expressed as percent of cell growth determined relative to that of untreated control cells

Experiment [12] concerns CCRF-CEM (Leukemia). Described as above. The experiment is classed as cell-based, human. On the procedure:
as §1, §3, §5

Experiment [13] concerns MDA-MB-231/ATCC (Breast). Described as above. The experiment is classed as cell-based, human. On the procedure:
as §1, §3, §5

In experiment [14] the test system is SF-539 (CNS). Described as above. The experiment is classed as cell-based, human. The procedure: as §1, §3, §5
Experiment [15] concerns U251 (CNS). The experiment is described as above. Type of experiment: cell-based, human. On the procedure:
as §1, §3, §5

For experiment [16], the system named is ACHN (Renal). The description is as above. The experiment is classed as cell-based, human. The procedure:
as §1, §3, §5

Experiment [17] concerns SW-620 (Colon). The experiment is described as above. The experiment is classed as cell-based, human. The procedure: as §1, §3, §5
Experiment [18] deals with LOX IMVI (Melanoma). The experiment is described as above. The experiment is classed as cell-based, human. The procedure:
as §1, §3, §5

In experiment [19] the test system is SK-MEL-5 (Melanoma). Described as above. Type of experiment: cell-based, human. The procedure:
as §1, §3, §5

Experiment [20] concerns NCI/ADR-RES (Breast). The description is as above. Type of experiment: cell-based, human. On the procedure: as §1, §3, §5
The test system of experiment [21] is MALME-3M (Melanoma). The experiment is described as above. The experiment is classed as cell-based, human. On the procedure: as §1, §3, §5

On to `COc1cc(C=CC(=O)c2ccc(F)cc2)ccc1OCCCCCOc1cc2c(cc1OC)C(=O)N1CCC[C@H]1C=N2` [6c, 7-Methoxy-8-{5-[1-(4-fluorophenyl)-3-(4-hydroxy-3-methoxyphenyl)-2-propen-1-one]pentyl}-oxy-(11aS)-1,2,3,11a-5H-pyrrolo[2,1-c][1,4]benzodiazepin-5-one], for which the “Log GI50 (concentration in mol/L causing 50% growth inhibition)” value was −5.05 mol/L in experiment [1]; −6.59 mol/L in experiment [2]; −6.38 mol/L in [3]; −5.68 mol/L in experiment [4]; −6.76 mol/L in experiment [5]; −6.31 mol/L in experiment [6]. Also, the “Log GI50 (concentration in mol/L causing 50% growth inhibition)” value in experiment [7] is recorded as −4.60 mol/L; in experiment [8] it was −6.39 mol/L; in experiment [9], −6.38 mol/L. The “ΔTμ (° C.) after incubation at 37 °C. for 0 h” value in experiment [10] (0 h incubation) turned out to be 2.4 °C. Further, the “ΔTμ (° C.) after incubation at 37 °C. for 18 h” value in experiment [10] (18 h incubation) is 2.9 °C. Moreover, the GI50 came to 16.5 µM in experiment [11]; 25.1 µM in [12]; 19.9 µM in [13]; 30.3 µM in experiment [14]; 15.2 µM in [15]; 42 µM in experiment [16]. The 50% growth inhibitory concentration (GI50) in experiment [17] was determined as 18.8 µM; in [18] it was 18.2 µM; in experiment [19] it was 20.9 µM; in [20], 17.4 µM; in [21], 24.2 µM.
